# Experimental data: patent US20260060947A1 (INSTITUT PASTEUR DE MONTEVIDEO, priority 2019, published 2026)
# Entries after “also recorded” stand apart in the source; their conditions may differ.
# What was measured:
# SOD1^G93A rats = test: Immunohistochemical analysis of gliosis in the ventral horn of lumbar spinal cord; assay type: in vivo, rat; details: 15 days post-paralysis
# Procedure: After 15 days of treatment using 100 mg/kg/day of BANA, starting after paralysis onset, animals were deeply anesthetized and transcardial perfusion was performed with 0.9% saline and 4% paraformaldehyde in […] (pH 7.2-7.4). Fixed spinal cords were removed, post-fixed by PFA 4% immersion overnight, and then transverse sectioned (30 m) in a Leica cryostat. Serial sections were collected in 100 mM PBS for immunohistochemistry.
# At least 4 rats were analyzed for each immunohistochemistry experiment. Three different conditions were studied as follows: 1) non-transgenic (NonTg) rats of 160-180 days; 2) transgenic SOD1^G93A rats of 195-210 days treated with vehicle (paralysis, 15 d-vehicle) and 3) transgenic SOD1^G93A rats of 195-210 days treated with 50 or 100 mg/kg/day of BANA during 15 days. After treatment animals were deeply anesthetized and transcardial perfusion was performed with paraformaldehyde 4% (v/v) in PBS pH=7.4. Fixed spinal cords were removed, post-fixed by immersion overnight in paraformaldehyde 4% (v/v) in PBS pH=7.4, and then transverse sectioned (30 m) in a Leica cryostat. Serial sections were collected in PBS pH=7.4 for immunohistochemistry.
# Free-floating sections were blocked and permeabilized for 1 hour at room temperature with 0.5% Triton X-100 and 5% BSA in PBS (pH=7.4), passed through washing buffered solutions, and incubated overnight at 4° C. in a solution of 0.5% Triton X-100 and BSA 1% in PBS (pH=7.4) containing the primary antibodies: mouse anti-GFAP (G3893 1:400), rabbit anti-GFAP (Sigma #G9269 1:400), mouse anti-S1000 (Sigma #S2532 1:400), rabbit anti-Iba1 (Wako #019-19741, 1:500), rabbit anti-ChAT (Choline acetyltransferase) (Millipore, #AB143, 1:300), mouse anti-CD68 (Abcam, #ab31630, 1:300), rabbit anti-CD34 (Abcam, #ab81289, 1:200), rabbit anti-Ki67 (Abcam, #ab66155, 1:300), rabbit anti-NF-κB-p65 (Abcam, #ab16502, 1:200), rabbit anti-Ki67 (Abcam, #ab16667, 1:200), rabbit anti-ubiquitin (Millipore, #05-1307, 1:200), mouse anti-nitrotyrosine (Millipore, #05233, 1:200), anti-VGlut-1 (SySy, #135-303, 1:300), anti-synaptophysin (Abcam, #206870, 1:300), anti-0111-Tubulin (Millipore, #MAB1637, 1:200).
# The inventors assessed the effect of BANA on markers of neuroinflammation in the degenerating spinal cords. SOD1^G93A rats were treated daily with BANA (100 mg/kg) or vehicle at the onset of motor symptoms. After 15 days of treatment, rats were euthanized and spinal cords were dissected for immunohistological analysis.
# Experiments to assess the effect of BANA on markers of neuroinflammation in the degenerating spinal cords were conducted in rats. SOD1^G93A rats were treated with BANA (100 mg/kg/day) or vehicle at the onset of symptoms. After 15 days of treatment rats were euthanized and spinal cord was removed for histological analysis.
# Microgliosis and astrogliosis were assessed by counting the expression intensity for the different markers in gray matter from the lumbar cord of non-transgenic, SOD1^G93A onset or symptomatic rats that were treated with either vehicle or BANA. The number of aberrant glial cells co-expressing the astrocytic markers GFAP and S1000 was assessed by counting the respective positive cells for both markers in gray matter from the lumbar cord of non-transgenic, SOD1^G93A onset or symptomatic rats that were treated with either vehicle or BANA. The analysis was performed in at least 10 histological sections per animal (three different rats for each condition) using the ImageJ software. Statistical studies were performed using statistical tools of GraphPad Prism 7 software. Descriptive statistics were used for each group, and Kruskal-Wallis analysis, followed by Dunn's comparison test, was used among groups. All results are presented as mean±SEM, with p<0.05 considered significant.
# NF-κB-p65 = test: LPS-induced NF-κB-p65 nuclear translocation in SOD1^G93A primary microglia; assay type: cell-based, rat; details: BANA 10-30 μM before LPS
# Procedure: FIG. 8D: Confocal images show CD11b-positive SOD1^G93A primary microglia (grey) treated with BANA, BA or vehicle, before LPS stimulation. […] Nuclear NF-κB-p65 colocalizing with DAPI nuclear staining is denoted in yellow.
# Nuclear NF-κB-p65 colocalizing with DAPI nuclear staining is denoted in yellow. […] Scale bar=20 μm. […] 2 replicates of 3 independent experiments.
# The effects of BANA on LPS- or TNFα-induced NF-κB activation were also assayed in cell cultures of BV2 microglial cell line and primary adult microglia isolated from symptomatic SOD1^G93A rats, and HT-29 NF-κB reporter cell line, respectively.
# NF-κB = test: RT-qPCR of NF-κB-associated cytokine mRNA in LPS-stimulated SOD1^G93A primary microglia; assay type: cell-based, rat; details: adult microglia isolated from symptomatic SOD1^G93A rats
# Procedure: FIG. 8F: Analysis by RT-qPCR of mRNA levels of NF-κB-associated proinflammatory cytokines CCL2, IL-6, IL-1β, and TNFα following LPS-stimulation in SOD1^G93A primary microglia.
# BANA inhibits LPS-induced NF-κB-p65 nuclear translocation in SOD1^G93A microglia. Nuclear NF-κB-p65 colocalizing with DAPI nuclear staining is denoted in yellow. […] All quantitative data are expressed as mean±SEM; data were analyzed by Ordinary one-way ANOVA followed by Tukey's multiple comparisons test, ****p<0,0001, 3 replicates of 4 independent experiments. Scale bar=20 μm. […] BANA prevents NF-κB-mediated gene transcription induced by LPS. Data are expressed as mean±SEM; data were analyzed by Ordinary one-way ANOVA followed by Tukey's multiple comparisons test, *p=0.0395 (CCL2) *p=0.0409 (IL-6) **p=0.0049 (IL-10) *p=0.0292 **p=0.0063 (TNFα). 2 replicates of 3 independent experiments.
smiles,measurement,setting,value
"O=C(O)c1ccc(/C=C/[N+](=O)[O-])cc1 [BANA, (E)-4-(2-nitrovinyl) benzoic acid]",astrogliosis (GFAP),SOD1^G93A rats; 50 mg/kg/day,failed to reduce
same,microgliosis (Iba1),SOD1^G93A rats; 50 mg/kg/day,significantly reduced
same,astrocytosis (GFAP staining),"SOD1^G93A rats; 100 mg/kg/day, vs vehicle",significantly reduced
same,cell proliferation in the ventral horn (Ki67-positive nuclei),"SOD1^G93A rats; 100 mg/kg/day, vs vehicle",decreased; also recorded: significantly reduced
same,emergence of aberrant glial cells (GFAP/S100β) in the surroundings of motor neurons,"SOD1^G93A rats; 100 mg/kg/day, vs vehicle",significantly reduced
same,"microgliosis in the ventral horn (Iba1-, CD68-, CD34-positive cells)","SOD1^G93A rats; 100 mg/kg/day, vs vehicle",significantly reduced
same,LPS-induced NF-κB-p65 nuclear translocation,NF-κB-p65,inhibits; also recorded: potently prevented
same,"LPS-induced NF-κB-dependent transcription of CCL2/MCP1, IL-6, IL-1β and TNFα (RT-qPCR)",NF-κB,prevented
